Results reported in paper PMC10208570, “Peptidomimetic antibiotics disrupt the lipopolysaccharide transport bridge of drug-resistant Enterobacteriaceae” (Science Advances, 2023).
≈ marks a conversion by molar mass, not a printed value. Where a SMILES comes first, the peptide text is derived from it. Bridges are numbered along the chain shown (N, C = ends). [ ]: non-standard residue; d: D form. The star is where a group is joined. Val(Nα-amidino) = CC(C)[C@H](NC(=N)N)C(=O)*; Hyp = O=C(O)[C@@H]1C[C@@H](O)CN1; Pen = CC(C)(S)[C@H](N)C(=O)O; dDab = NCC[C@@H](N)C(=O)O; Dab = NCC[C@H](N)C(=O)O

Key:
LptAmQ62L, D33A = biological target: T1, LptAmQ62L, D33A (Escherichia coli, UniProt P0ADV1, D33A/Q62L); test: FP indirect (competition) binding assay; parameters: species or system E. coli
T1 construct: His6-GB1 (N, cleaved yes); made in house; host or cells: E. coli BL21 (DE3)
Experimental: (§1) Protein stocks were purified and concentrated in buffer 1 [50 mM Na-Pi (pH 7) and 150 mM NaCl] and, if necessary, diluted to desired concentrations using buffer 2 [50 mM Na-Pi (pH 7), 150 mM NaCl, and 0.05% Tween 20]. Peptide stocks and fluorescently labeled peptide stocks were made in buffer 2. Every serial dilution consisted of 24 wells, the first well with the highest concentrate and the last well (well 24) with the lowest. First, 50 μl of buffer 2 was added to the wells 2 to 24 of each serial dilution. Then, 100 μl of concentrated unlabeled peptide/protein in their respective buffers was added to the first well. Fifty microliters were taken from the first well and added to the second well for a 1:1 serial dilution and continued for the 24 wells. […] Plates were covered with adhesive seals and left to incubate overnight at 4°C before FP measurements the next day. Anisotropy was measured using the Tecan Safire2 plate reader using a 10-nm bandwidth and setting the excitation and emission wavelengths to 635 and 670 nm, respectively. The G-factor (G) was also determined empirically as 1.094 for the instrument and included in all the anisotropy calculations.
(§2) For the indirect binding assays, r was calculated in the same manner as the direct binding assays. […] The control was subtracted from r to yield r′. Data were fit to a sigmoidal interpolation model on GraphPad Prism 9, and an IC50 was generated for each unlabeled peptide or protein measured.

LptAmD33A = biological target: T2, LptAmD33A (Escherichia coli, UniProt P0ADV1, D33A); test: FP indirect (competition) binding assay; parameters: species or system E. coli
T2 construct: His6-GB1 (N, cleaved yes); made in house; host or cells: E. coli BL21 (DE3)
Experimental: as §1, §2

LptAm = biological target: T3, LptAm (Escherichia coli, UniProt P0ADV1); test: biochemical; format: binding, E. coli
T3 construct: His6-GB1 (N, cleaved yes); made in house; host or cells: E. coli BL21 (DE3)
Experimental: as §1, §2

LptAmQ62L = biological target: T4, LptAmQ62L (Escherichia coli, UniProt P0ADV1, Q62L); test: biochemical; format: binding, E. coli
T4 construct: His6-GB1 (N, cleaved yes); made in house; host or cells: E. coli BL21 (DE3)
Experimental: as §1, §2

[1] = test system: panel of 121 Enterobacteriaceae including CRE, MDR, and XDR isolates; test: organism not typed; details: for MIC50 (n=121): CLSI microdilution method, 121 isolates
Experimental: MIC assays [Clinical and Laboratory Standards Institute (CLSI) methodology] and serial passage studies were performed as described by Luther et al. ([6]). […] Resistant mutants were isolated, and their MIC values were determined and sent to Microbes NG (Birmingham, United Kingdom) for whole-genome sequencing and bioinformatic analysis.

[2] = test system: Klebsiella pneumoniae NCTC 13443 LpxC, LpxD mutant; test: microbe, parasite or virus in culture; details: Table S9 panel; other mutation
Procedure, shortened: (§3)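 Following CLSI procedures, minimum inhibitory concentrations are measured; serial passage experiments select resistant mutants, whose MICs are determined before whole-genome sequencing and bioinformatic analysis.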

[3] = test system: Klebsiella pneumoniae ATCC 43816 PglJ, PhnJ, ThiH mutant; test: microbe, parasite or virus in culture; details: Table S9 panel; other mutation
Procedure, shortened: as §3

[4] = test system: Escherichia coli ATCC 25922 KdsD mutant; test: microbe, parasite or virus in culture; details: Table S9 panel; other mutation
Procedure, shortened: as §3

[5] = test system: K. pneumoniae ATCC 43816 LptA Q62L mutant; test: microbe, parasite or virus in culture; details: Table S9 panel
Procedure, shortened: as §3

[6] = test system: Klebsiella pneumoniae ATCC 43816 LptA L116Q mutant; test: microbe, parasite or virus in culture; details: Table S9 panel
Procedure, shortened: as §3

[7] = test system: Klebsiella pneumoniae NCTC 13443 LptA I36S mutant; test: microbe, parasite or virus in culture; details: Table S9 panel
Procedure, shortened: as §3

[8] = test system: Escherichia coli ATCC 25922 LptA E84D mutant; test: microbe, parasite or virus in culture; details: Table S9 panel
Procedure, shortened: as §3

[9] = test system: Klebsiella pneumoniae NCTC 13443 YejM mutant; test: microbe, parasite or virus in culture; details: Table S9 panel; other mutation
Procedure, shortened: as §3

[10] = test system: Klebsiella pneumoniae ATCC 43816 LptA I36S mutant; test: microbe, parasite or virus in culture; details: Table S9 panel
Procedure, shortened: as §3

[11] = test system: Klebsiella pneumoniae ATCC 43816 LapB mutant; test: microbe, parasite or virus in culture; details: Table S9 panel; other mutation
Procedure, shortened: as §3

[12] = test system: Klebsiella pneumoniae ATCC 43816 LptA I36N mutant; test: microbe, parasite or virus in culture; details: Table S9 panel
Procedure, shortened: as §3

[13] = 7-day repeated dosing (IV bolus q12h); format: in vivo, CD-1 mice; details: mice, intravenous BID 15 mg/kg per dose, seven consecutive days
Experimental: (§4) Two different study designs were used to determine the potential toxicity of these compounds, when given BID via intravenous bolus (injection) 12 hours apart to CD-1 mice. In the first type of study, male mice were dosed on a single day at three escalating dose levels (three mice per group), while the second type of study male mice (nine mice per group) were dosed for seven consecutive days with the same administration regimen (q12h). […] Detailed clinical observations were conducted up to at least 3 hours after the first daily dosing and up to at least 1 hour after the second daily dosing. In addition, the Irwin battery of tests was used to assess the mice neurobiological and physiological state during the single day study at 30, 60, 120, 180, and 240 min after the first administration. The following parameters were included in the observations: occurrence of abnormal gait, catalepsy, piloerection, abnormal respiration, increase or decrease in spontaneous activity, spontaneous activity following audible stimuli (tapping on side of cage), touch response, and body tonus. Any additional symptoms observed were also reported.

[14] = Tolerability (single day, IV bolus q12h); format: in vivo, CD-1 mice; details: for Tolerability (IV bolus, q12h): mice died: single day
Experimental: as §4

T3 sequence (P0ADV1 28-159): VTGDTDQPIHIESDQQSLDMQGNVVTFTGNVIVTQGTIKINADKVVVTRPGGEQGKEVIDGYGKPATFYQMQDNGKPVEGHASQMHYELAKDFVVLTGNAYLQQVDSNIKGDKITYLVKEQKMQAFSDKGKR
T4 sequence (P0ADV1 28-159 Q62L): as the sequence (P0ADV1 28-159) above, with Q35L counted along it
T2 sequence (P0ADV1 28-159 D33A): as the sequence (P0ADV1 28-159) above, with D6A counted along it
T1 sequence (P0ADV1 28-159 D33A/Q62L): as the sequence (P0ADV1 28-159) above, with D6A, Q35L counted along it

## CC[C@H](C)[C@H](NC(=O)[C@@H]1C[C@@H](O)CN1C(=O)[C@@H](NC(=N)N)C(C)C)C(=O)N[C@H](C(=O)N[C@@H](Cc1ccc(O)cc1)C(=O)N[C@@H]1C(=O)N[C@@H](CC(N)=O)C(=O)N[C@@H](CCCNC(=N)N)C(=O)N[C@@H](CCN)C(=O)N[C@@H]([C@@H](C)O)C(=O)N[C@H](CCN)C(=O)N[C@@H](CCCCN)C(=O)N[C@H](C(=O)N[C@@H](CCN)C(=O)N[C@@H](CCCNC(=N)N)C(=O)N[C@@H](Cc2ccc(O)cc2)C(=O)O)CSSC1(C)C)[C@@H](C)O [Compound 7] ({Val(Nα-amidino)}-[Hyp]ITY[Pen]NR[Dab]T[dDab]KC[Dab]RY-OH; disulfide 5-12)
LptAmQ62L, D33A
  IC50: 0.0232 ± 0.01 µM
  Ki: 0.017 ± 0.0073 µM
LptAmD33A
  IC50: 0.0323 ± 0.0034 µM
  Ki: 0.0234 ± 0.0025 µM
LptAm
  IC50: 0.0117 ± 0.0005 µM
  Ki: 0.0019 ± 0.0001 µM
LptAmQ62L
  IC50: 0.0254 ± 0.0046 µM
  Ki: 0.0172 ± 0.0031 µM
[1]
  MIC50 (n=121): 0.25 µg/mL (≈ 0.125 µM)
[2]
  MIC Klebsiella pneumoniae NCTC 13443 LpxC, LpxD (1x): 1 µg/mL (≈ 0.5 µM)
[3]
  MIC Klebsiella pneumoniae ATCC 43816 PglJ, PhnJ, ThiH (1x): 0.5 µg/mL (≈ 0.25 µM)
[4]
  MIC Escherichia coli ATCC 25922 KdsD (2x): 0.5 µg/mL (≈ 0.25 µM)
[5]
  MIC Klebsiella pneumoniae ATCC 43816 LptA Q62L (4x): 8 µg/mL (≈ 4 µM)
[6]
  MIC Klebsiella pneumoniae ATCC 43816 LptA L116Q (1x): 2 µg/mL (≈ 0.999 µM)
[7]
  MIC Klebsiella pneumoniae NCTC 13443 LptA I36S (2x): 8 µg/mL (≈ 4 µM)
[8]
  MIC Escherichia coli ATCC 25922 LptA E84D (1x): 1 µg/mL (≈ 0.5 µM)
[9]
  MIC Klebsiella pneumoniae NCTC 13443 YejM (1x): 2 µg/mL (≈ 0.999 µM)
[10]
  MIC Klebsiella pneumoniae ATCC 43816 LptA I36S (1x): 2 µg/mL (≈ 0.999 µM)
[11]
  MIC Klebsiella pneumoniae ATCC 43816 LapB (1x): 0.5 µg/mL (≈ 0.25 µM)
[12]
  MIC Klebsiella pneumoniae ATCC 43816 LptA I36N (1x): 2 µg/mL (≈ 0.999 µM)
[13]
  Tolerability in repeat dose safety study: well tolerated with no adverse events or detectable kidney toxicity
[14]; at 30 mg/kg/day q12h
  Tolerability (IV bolus, q12h): mice died: 0/3
[14]; mice, intravenous, twice a day (q12h)
  Tolerated dose, intravenous BID: up to 30 mg/kg per day

## CC[C@H](C)[C@H](NC(=O)[C@@H]1C[C@@H](O)CN1C(=O)[C@@H](N)C(C)C)C(=O)N[C@H](C(=O)N[C@@H](Cc1ccc(O)cc1)C(=O)N[C@@H]1C(=O)N[C@@H](CC(N)=O)C(=O)N[C@@H](CCCNC(=N)N)C(=O)N[C@@H](CCN)C(=O)N[C@@H]([C@@H](C)O)C(=O)N[C@H](CCN)C(=O)N[C@@H](CCCCN)C(=O)N[C@H](C(=O)N[C@@H](CCN)C(=O)N[C@@H](CCCNC(=N)N)C(=O)N[C@@H](Cc2ccc(O)cc2)C(=O)O)CSSC1(C)C)[C@@H](C)O [Compound 6] (H-V[Hyp]ITY[Pen]NR[Dab]T[dDab]KC[Dab]RY-OH; disulfide 6-13)
LptAm
  IC50: 0.0169 ± 0.001 µM
  Ki: 0.0028 ± 0.0002 µM
LptAmQ62L
  IC50: 0.0146 ± 0.0025 µM
  Ki: 0.0099 ± 0.0017 µM
[1]
  MIC50 (n=121): 0.25 µg/mL (≈ 0.128 µM)
[1]; panel of 121 Enterobacteriaceae including CRE, MDR, and XDR isolates
  MIC90: 1 µg/mL (≈ 0.51 µM)
[13]
  Tolerability in repeat dose safety study: well tolerated with no adverse events or detectable kidney toxicity
[14]; at 40 mg/kg/day q12h
  Tolerability (IV bolus, q12h): mice died: 0/3
